Measured values from US20070027143A1, “Novel substituted 2,3-benzodiazepine derivatives” (priority 2003, published 2007).

| melting point [°C] | Structure (SMILES) |
| --- | --- |
| 150 to 152 | C[C@H]1Cc2cc3c(cc2C(c2ccc(N)cc2)=NN1C1=NCCS1)OCO3 [Example 70, (S)-5-(4-Aminophenyl)-7-(4,5-dihydro-thiazol-2-yl)-8-methyl-8,9-dihydro-7H-1,3-dioxolo-[4,5-h][2,3]benzodiazepine] |
| 258 to 262 | CC(=O)Nc1ccc(C2=NN(c3nnc(C)s3)C(C)Cc3cc4c(cc32)OCO4)cc1C (racemic) [Example 131, (±)-5-(4-Acetylamino-3-methylphenyl)-8-methyl-7-(5-methyl-1,3,4-thiadiazol-2-yl)-8,9-dihydro-7H-1,3-dioxolo[4,5-h][2,3]benzodiazepine] |
| 130 to 135 | Cc1nc(N2N=C(c3ccc(N)cc3)c3cc4c(cc3CC2C)OCO4)no1 (racemic) [Example 109, (±)-5-(4-Aminophenyl)-8-methyl-7-(5-methyl-1,2,4-oxadiazol-3-yl)-8,9-dihydro-7H-1,3-dioxolo-[4,5-h][2,3]benzodiazepine] |
| 115 to 118 | CCOC(=O)c1nnc(N2N=C(c3ccc([N+](=O)[O-])c(C)c3)c3cc4c(cc3C[C@H]2C)OCO4)s1 [Example 144, (R)-7-(5-Ethoxycarbonyl-1,3,4-thiadiazol-2-yl)-8-methyl-5-(3-methyl-4-nitrophenyl)-8,9-dihydro-7H-1,3-dioxolo[4,5-h][2,3]benzodiazepine] |
| 178 to 181 | CC1Cc2cc3c(cc2C(c2ccc(N)cc2)=NN1C1N=CNN1)OCO3 (racemic) [Example 113, (±)-5-(4-Aminophenyl)-8-methyl-7-(1H(2H)1,2,4-triazol-3-yl)-8,9-dihydro-7H-1,3-dioxolo-[4,5-h][2,3]benzodiazepine] |
| 140 to 145 | Cc1nnc(N2N=C(c3ccc(N)c(C)c3)c3cc4c(cc3C[C@H]2C)OCO4)o1 [Example 181, (R)-5-(4-Amino-3-methylphenyl)-8-methyl-7-(5-methyl-1,3,4-oxadiazol-2-yl)-8,9-dihydro-7H-1,3-dioxolo[4,5-h][2,3]benzodiazepine] |
| 100 to 103 | Cc1cc(N2N=C(c3ccc(N)cc3)c3cc4c(cc3CC2C)OCO4)on1 (racemic) [Example 185, (±)-5-(4-Aminophenyl)-8-methyl-7-(3-methyl-isoxazol-5-yl)-8,9-dihydro-7H-1,3-dioxolo-[4,5-h][2,3]benzodiazepine] |
| 211 to 213 | CC(=O)Nc1ccc(C2=NN(C3=NCCS3)C(C)Cc3cc4c(cc32)OCO4)cc1 (racemic) [Example 122, (±)-5-(4-Acetylaminophenyl)-7-(4,5-dihydro-thiazol-2-yl)-8-methyl-8,9-dihydro-7H-1,3-dioxolo-[4,5-h][2,3]benzodiazepine] |
| 118 to 122 | Cc1cc(C2=NN(c3nnc(CC#N)s3)[C@H](C)Cc3cc4c(cc32)OCO4)ccc1[N+](=O)[O-] [Example 142, (R)-7-(5-Cyanomethyl-1,3,4-thiadiazol-2-yl)-8-methyl-5-(3-methyl-4-nitrophenyl)-8,9-dihydro-7H-1,3-dioxolo[4,5-h][2,3]benzodiazepine] |
| 192 to 194 | CC1Cc2cc3c(cc2C(c2ccc(N)cc2)=NN1c1nncs1)OCO3 (racemic) (hydrate or solvate) [Example 83, (±)-5-(4-Aminophenyl)-8-methyl-7-(1,3,4-thiadiazol-2-yl)-8,9-dihydro-7H-1,3-dioxolo-[4,5-h][2,3]benzodiazepine] |
| 134 to 140 | Cc1cc(C2=NN(c3nnc(C(C)C)s3)[C@H](C)Cc3cc4c(cc32)OCO4)ccc1N [Example 169, (R)-5-(4-Amino-3-methylphenyl)-7-(5-isopropyl-1,3,4-thiadiazol-2-yl)-8-methyl-8,9-dihydro-7H-1,3-dioxolo[4,5-h][2,3]benzodiazepine] |
| 132 to 134 | CSCc1nnc(N2N=C(c3ccc([N+](=O)[O-])c(C)c3)c3cc4c(cc3C[C@H]2C)OCO4)s1 [Example 143, (R)-8-Methyl-5-(3-methyl-4-nitrophenyl)-7-(5-methylthiomethyl-1,3,4-thiadiazol-2-yl)-8,9-dihydro-7H-1,3-dioxolo[4,5-h][2,3]benzodiazepine] |
| 124 to 128 | C[C@H]1Cc2cc3c(cc2C(c2ccc(N)cc2)=NN1c1nccs1)OCO3 [Example 62, (S)-5-(4-Aminophenyl)-8-methyl-7-(2-thiazolyl)-8,9-dihydro-7H-1,3-dioxolo[4,5-h][2,3]benzodiazepine] |
| 135 to 140 | Cc1cc(C2=NN(c3nnc(CC#N)s3)[C@H](C)Cc3cc4c(cc32)OCO4)ccc1N [Example 173, (R)-5-(4-Amino-3-methylphenyl)-7-(5-cyanomethyl-1,3,4-thiadiazol-2-yl)-8-methyl-8,9-dihydro-7H-1,3-dioxolo[4,5-h][2,3]benzodiazepine] |
| 124 to 128 | CC(=O)Nc1ccc(C2=NN(c3nccs3)[C@@H](C)Cc3cc4c(cc32)OCO4)cc1 [Example 124, (S)-5-(4-Acetylaminophenyl)-8-methyl-7-(2-thiazolyl)-8,9-dihydro-7H-1,3-dioxolo-[4,5-h][2,3]benzodiazepine] |
| 163 to 164 | CCc1nnc(N2N=C(c3ccc([N+](=O)[O-])cc3)c3cc4c(cc3CC2C)OCO4)s1 (racemic) [Example 30, (±)-7-(5-Ethyl-1,3,4-thiadiazol-2-yl)-8-methyl-5-(4-nitrophenyl) 8,9-dihydro-7H-1,3-dioxolo[4,5-h][2,3]benzodiazepine] |
| 184 to 186 | Cc1cc(C2=NN(c3nnc(CO)s3)[C@H](C)Cc3cc4c(cc32)OCO4)ccc1N [Example 171, (R)-5-(4-Amino-3-methylphenyl)-7-(5-hydroxymethyl-1,3,4-thiadiazol-2-yl)-8-methyl-8,9-dihydro-7H-1,3-dioxolo[4,5-h][2,3]benzodiazepine] |
| 213 to 216 | CC1Cc2ccc(Cl)cc2C(c2ccc(N)cc2)=NN1C1=NCCS1 (racemic) [Example 79, (±)-1-(4-Aminophenyl)-3-(4,5-dihydro-thiazol-2-yl)-8-chloro-4-methyl-4,5-dihydro-3H-[2,3]benzodiazepine] |
| 165 to 168 | CC1Cc2cc3c(cc2C(c2ccc(N)cc2)=NN1c1ncn(C)n1)OCO3 (racemic) [Example 116, (±)-5-(4-Aminophenyl)-8-methyl-7-(1-methyl-1H-1,2,4-triazol-3-yl)-8,9-dihydro-7H-1,3-dioxolo-[4,5-h][2,3]benzodiazepine] |
| 182 to 183 | CC1Cc2cc3c(cc2C(c2ccc(N)cc2)=NN1c1ncnn1C)OCO3 (racemic) [Example 115, (±)-5-(4-Aminophenyl)-8-methyl-7-(2-methyl-2H-1,2,4-triazol-3-yl)-8,9-dihydro-7H-1,3-dioxolo-[4,5-h][2,3]benzodiazepine] |
| 220 to 221 | C[C@@H]1Cc2cc3c(cc2C(c2ccc(N)cc2)=NN1c1cnns1)OCO3 [Example 186, (R)-5-(4-Aminophenyl)-8-methyl-7-(1,2,3-thiadiazol-5-yl)-8,9-dihydro-7H-1,3-dioxolo-[4,5-h][2,3]benzodiazepine] |
| 143 to 148 | Cc1nnc(N2N=C(c3ccc(N)cc3)c3cc4c(cc3CC2C)OCO4)s1 (racemic) [Example 85, (±)-5-(4-Aminophenyl)-8-methyl-7-(5-methyl-1,3,4-thiadiazol-2-yl)-8,9-dihydro-7H-1,3-dioxolo-[4,5-h][2,3]benzodiazepine] |
